For the assay, the system named is P. falciparum (NF54 or 3D7 strain). Briefly: Assay for P. falciparum proliferation in infected human blood cells (SYBR Green). The note with it: Plasmodium falciparum, Erythrocyte, 72 h, NF54 or 3D7 infected human erythrocytes, 72 hours; read-out: EC50 (nM), inhibitory efficacy in delaying P. falciparum proliferation in infected human blood cells. In kind it is cell-based, Plasmodium falciparum. As to the method: Assay for P. falciparum Proliferation in Infected Human Blood Cells
Compounds of the invention can be assayed to measure their capacity to inhibit proliferation of P. falciparum parasitemia in infected red blood cells. This parasite proliferation assay measures the increase in parasite DNA content using a DNA intercalating dye, SYBR Green® (INVITROGEN®) which has a high affinity for double stranded DNA.
NF54 or 3D7 P. falciparum strain is grown in complete culturing media until parasitemia reaches 3% to 8% with O+ human erythrocytes. […] 20 μl of screening media is dispensed into 384 well assay plates. 50 nl of compounds of the invention (in DMSO), including antimalarial controls (mefloquine, pyrimethamine and artemisinin), are then transferred into the assay plates, as well as DMSO alone to serve as a negative control for inhibition. Then 30 μl of a suspension of a NF54 or 3D7 P. falciparum infected erythrocytes in screening media is dispensed into the assay plates such that the final hematocrit is 2.5% with a final parasitemia of 0.3%. The plates are placed in a 37° C. incubator for 72 hours in a low oxygen environment containing 93% N2, 4% CO2, and 3% O2 gas mixture. 10 μl of lysis buffer (saponin, triton-X, EDTA) containing a 10× solution of SYBR Green I® in RPMI media is dispensed into the plates. The plates are lidded and kept at room temperature overnight for the lysis of the infected red blood cells. The fluorescence intensity is measured (excitation […], emission 530 nm) using the Envision™ system (Perkin Elmer).

Take `COc1ccc(-c2cnc3cnc(C(=O)N(C)c4ccc(C#N)cc4)cn23)cc1C` [Compound 30, N-(4-cyanophenyl)-3-(4-methoxy-3-methylphenyl)-N-methylimidazo[1,2-a]pyrazine-6-carboxamide]: the EC50 was found to be 2510 nM. Under `CN(C(=O)c1cn2c(-c3ccc(C(F)(F)F)cc3Cl)cnc2cn1)c1ccc(C#N)cc1` [Compound 31, 3-[2-chloro-4-(trifluoromethyl)phenyl]-N-(4-cyanophenyl)-N-methylimidazo[1,2-a]pyrazine-6-carboxamide] stands 1200 nM. Under `CN(C(=O)c1cn2c(-c3ccc(C(F)(F)F)cc3)cnc2cn1)c1ccc(F)c(Cl)c1` [Compound 32, N-(3-chloro-4-fluorophenyl)-N-methyl-3-[4-(trifluoromethyl)phenyl]imidazo[1,2-a]pyrazine-6-carboxamide] stands 135 nM; under `CC(=O)c1cnc2cnc(C(=O)N(C)c3ccc(Cl)nc3)cn12` [Compound 33, 3-acetyl-N-(6-chloropyridin-3-yl)-N-methylimidazo[1,2-a]pyrazine-6-carboxamide], 4710 nM.

As to `CN(C(=O)c1cn2c(-c3ccc(C(F)(F)F)cc3)cnc2cn1)c1cccc(Cl)c1` [Compound 35, N-(3-chlorophenyl)-N-methyl-3-[4-(trifluoromethyl)phenyl]imidazo[1,2-a]pyrazine-6-carboxamide], the EC50 came to 462 nM. Under `CN(C)c1ccc(-c2cnc3cnc(CN(C)c4ccc(F)cc4)cn23)cc1` [Compound 36, 4-(6-{[(4-fluorophenyl)(methyl)amino]methyl}imidazo[1,2-a]pyrazin-3-yl)-N,N-dimethylaniline] stands 329 nM; under `CN(C)c1ccc(-c2cnc3cnc(CN(C)c4ccc(Cl)cc4)cn23)cc1` [Compound 37, 4-(6-{[(4-chlorophenyl)(methyl)amino]methyl}imidazo[1,2-a]pyrazin-3-yl)-N,N-dimethylaniline], 640 nM. Under `CCc1ccc(N(C)C(=O)c2cn3c(-c4ccc(C(F)(F)F)cc4)cnc3cn2)nc1` [Compound 39, N-(5-ethylpyridin-2-yl)-N-methyl-3-[4-(trifluoromethyl)phenyl]imidazo[1,2-a]pyrazine-6-carboxamide] stands 1080 nM; under `CN(C(=O)c1cn2c(-c3ccc(C(F)(F)F)cc3)cnc2cn1)c1ccccc1OC(F)(F)F` [Compound 40, N-methyl-N-[2-(trifluoromethoxy)phenyl]-3-[4-(trifluoromethyl)phenyl]imidazo[1,2-a]pyrazine-6-carboxamide], 3320 nM. Under `COc1ccc(-c2cnc3cnc(C(=O)N(C)c4ccc(Cl)cc4Cl)cn23)cc1` [Compound 41, N-(2,4-dichlorophenyl)-3-(4-methoxyphenyl)-N-methylimidazo[1,2-a]pyrazine-6-carboxamide] stands 97 nM; under `COc1ccc(-c2cnc3cnc(C(=O)N(C)c4ccc(C#N)cc4)cn23)cc1Cl` [Compound 42, -(3-chloro-4-methoxyphenyl)-N-(4-cyanophenyl)-N-methylimidazo[1,2-a]pyrazine-6-carboxamide], 333 nM. On to `CN(C(=O)c1cn2c(-c3ccc(C(F)(F)F)cc3)cnc2cn1)c1ccc(Oc2ccccc2)cc1` [Compound 43, N-methyl-N-(4-phenoxyphenyl)-3-[4-(trifluoromethyl)phenyl]imidazo[1,2-a]pyrazine-6-carboxamide], for which the EC50 is more than 10000 nM. For `CN(Cc1cn2c(-c3ccc(Cl)cc3)cnc2cn1)c1ccc(Cl)cc1` [Compound 44, 4-chloro-N-{[3-(4-chlorophenyl)imidazo[1,2-a]pyrazin-6-yl]methyl}-N-methylaniline], the EC50 was found to be 206 nM. Under `Cc1ccc(N(C)Cc2cn3c(-c4ccc5c(cnn5C)c4)cnc3cn2)nc1` [Compound 45, N,5-dimethyl-N-{[3-(1-methyl-1H-indazol-5-yl)imidazo[1,2-a]pyrazin-6-yl]methyl}pyridin-2-amine] stands 178 nM.

(Values after patent publication US20150291598A1 (NOVARTIS AG, priority 2012, published 2015).)
